# Target: T1, HGFR (His6-HGFR cytoplasmic domain) (Homo sapiens, UniProt P08581)
# T1 construct: made in house; host or cells: Spodoptera frugiperda Sf9 insect cells (baculovirus, pFastBac-HT)
# Test: Inhibitory activity against HGFR tyrosine kinase activity (HTRF)
# Format: biochemical
# Conditions: biotin-poly(GT), ATP, 30° C. 10 min, read-out: IC50 (concentration necessary to inhibit HGFR kinase activity by 50%)
# Description: The cytoplasmic domain of HGFR (Genbank Accession No. J02958) is a 1.3 kb DNA fragment beginning with Lys974 and including a stop codon, and described by Park et al. (Proc. Natl. Acad. Sci. U.S.A. 84(18), 6379-6383, 1987). The DNA fragment was isolated from the human placental cDNA library (purchased from Clontech) by PCR (TaKaRa Ex Taq™ Kit, purchased from TaKaRa) using two kinds of primers (SEQ ID NO: 1, 5′-[…]-3′ and SEQ ID NO: 2, 5′-[…]-3′, purchased from Invitrogen). The DNA fragment was cloned into a baculovirus transplace vector (pFastBac™-HT (purchased from GIBCO BRL)) to produce a recombinant construct. The construct was transfected into insect cells (Spodoptera frugiperda 9 (Sf9)) to produce a solution of HGFR transfected baculovirus (preparation of a recombinant baculovirus can be found in the standard text (Bac-to-Bac Baculovirus Expression System (GIBCO BRL)). The cloning of the other receptor tyrosine kinases and preparation of the recombinant baculovirus solutions were performed using a cytoplasmic fragment starting from Lys791 (VEGFR2, Genbank Accession No. L04947), a cytoplasmic fragment starting from Lys398 (FGFR1, Genbank Accession No. X52833) and a cytoplasmic fragment starting from Lys558 (PDGFRβ, Genbank Accession No. M21616) in stead of HGFR in the above method. EGFR was purchased from Sigma (Production No. E-2645).
# To the suspension of Sf9 cells (3×10^8 cells) in SF-900II medium (purchased from Invitrogen) containing 2% FBS was added a solution of HGFR transfected baculovirus above (4 ml), followed by a shaking culture at 27° C. for 48 hrs. The cells infected with the HGFR transfected baculovirus were centrifuged at 1,000 rpm, 4° C. for 5 min to remove the supernatant. The precipitated infected cells were suspended in 80 ml of ice-cold PBS, and centrifuged at 1,000 rpm, 4° C. for 5 min to remove the supernatant. The precipitated infected cells were suspended in 40 ml of ice-cold Lysis Buffer (50 mM Tris-HCl (pH 8.5), 5 mM 2-mercaptoethanol, 100 mM KCl, 1 mM PMSF and 1% (v/v) NP-40). The suspension was centrifuged at 12,000 rpm, 4° C. for 30 min to provide a supernatant.
# The supernatant was loaded onto an Ni-NTA agarose column (3 ml, purchased from Qiagen) equilibrated with 30 ml of Buffer A (20 mM Tris-HCl (pH 8.5), 5 mM 2-mercaptoethanol, 500 mM KCl, 20 mM imidazole and 10% (v/v) glycerol). The column was washed with 30 ml of Buffer A, 6 ml of Buffer B (20 mM Tris-HCl (pH 8.5), 5 mM 2-mercaptoethanol, 1 M KCl, and 10% (v/v) glycerol) and 6 ml of Buffer A in this order. Then, the column was eluted with 6 ml of Buffer C (20 mM Tris-HCl (pH 8.5), 5 mM 2-mercaptoethanol, 100 mM KCl, 100 mM imidazole, and 10% (v/v) glycerol) to provide a fraction. The fraction was entrapped in a dialysis membrane (purchased from Spectrum Laboratories), dialyzed at 4° C. overnight with 1 L of dialysis buffer (20 mM Tris-HCl (pH 7.5), 10% (v/v) glycerol, 1 mM dithiothreitol, 0.1 mM Na3VO4 and 0.1 mM EGTA), and stored at −80° C. until used. An aliquot of the dialyzed fraction was subjected to SDS electrophoresis, and then a recombinant protein (His6-HGFR, the HGFR cytoplasmic domain fused with six histidine at the N terminus) detected at a molecular weight of about 60 kDa when stained with Coomassie Brilliant Blue, was determined with regard to protein content using BSA (purchased from Sigma) as a standard. The VEGFR2 cytoplasmic domain, the FGFR1 cytoplasmic domain, and the PDGFRβ cytoplasmic domain were fused with six histidine at the N terminus by the similar method to produce respective recombinant proteins (His6-VEGFR2, His6-FGFR1, and His6-PDGFRβ). […]
# T1 sequence (P08581 956-1390 limits assumed): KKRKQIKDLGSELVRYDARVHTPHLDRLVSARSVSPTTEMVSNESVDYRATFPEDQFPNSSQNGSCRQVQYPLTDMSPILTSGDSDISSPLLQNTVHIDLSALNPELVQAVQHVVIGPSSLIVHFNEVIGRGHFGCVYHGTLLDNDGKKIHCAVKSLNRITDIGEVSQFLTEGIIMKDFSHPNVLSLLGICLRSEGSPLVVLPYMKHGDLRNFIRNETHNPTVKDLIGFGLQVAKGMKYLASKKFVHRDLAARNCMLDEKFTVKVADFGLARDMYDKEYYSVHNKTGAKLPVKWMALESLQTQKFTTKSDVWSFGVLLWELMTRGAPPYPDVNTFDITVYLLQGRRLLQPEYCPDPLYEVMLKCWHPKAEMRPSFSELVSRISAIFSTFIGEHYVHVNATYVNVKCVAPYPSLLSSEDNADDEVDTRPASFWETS
row,IC50 [nM],Compound
1,100,"O=C(Cc1ccccc1)NC(=S)Nc1ccc(Oc2ccnc(NC(=O)N3CCC(N4CCOCC4)CC3)c2)c(F)c1 [Example 258, 4-{2-Fluoro-4-[3-(2-phenylacetyl)thioureido]phenoxy}-2-{[4-(morpholin-4-yl)piperidin-1-yl]carbonylamino}pyridine]"
2,100,"O=C(Cc1ccccc1)NC(=S)Nc1ccc(Oc2ccnc(NC(=O)N3CC(N4CCCC4)C3)c2)c(F)c1 [Example 261, 3-(Pyrrolidin-1-yl)azetidine-1-carboxylic acid {4-[2-fluoro-4-(3-phenylacetylthioureido)phenoxy]pyridin-2-yl}amide]"
3,28,"CN1CC[C@H](N(C)C(=O)Nc2cc(Oc3ccc(NC(=S)NC(=O)Cc4ccc(F)cc4)c(F)c3)ncn2)C1 [Example 281, 3-[6-(3-Fluoro-4-{3-[2-(4-fluorophenyl)acetyl]thioureido}phenoxy)pyrimidin-4-yl]-1-methyl-1-[(3S)-1-methylpyrrolidin-3-yl]urea]"
4,51,"CCN1CCC(N(C)C(=O)Nc2cc(Oc3ccc(NC(=S)NC(=O)Cc4ccc(F)cc4)cc3F)ncn2)CC1 [Example 285, 1-(1-Ethylpiperidin-4-yl)-3-[6-(2-fluoro-4-{3-[2-(4-fluorophenyl)acetyl]thioureido}phenoxy)pyrimidin-4-yl]-1-methylurea]"
5,16,"CN(C(=O)Nc1cc(Oc2ccc(NC(=S)NC(=O)Cc3ccc(F)cc3)cc2F)ncn1)C1CCOCC1 [Example 288, 3-[6-(2-Fluoro-4-{3-[2-(4-fluorophenyl)acetyl]thioureido}phenoxy)pyrimidin-4-yl]-1-methyl-1-(tetrahydropyran-4-yl)urea]"
6,67,"CN1CCC(N(C)C(=O)Nc2cc(Oc3ccc(NC(=S)NC(=O)Cc4ccc(F)cc4)c(F)c3)ccn2)CC1 [Example 289, 3-[4-(3-Fluoro-4-{3-[2-(4-fluorophenyl)acetyl]thioureido}phenoxy)pyridin-2-yl]-1-methyl-1-(1-methylpiperidin-4-yl)urea]"
7,130,"CN1CCC(N(C)C(=O)Nc2cc(Oc3ccc(NC(=O)NC(=O)Cc4ccc(F)cc4)c(F)c3)ccn2)CC1 [Example 290, 3-[4-(3-Fluoro-4-{3-[2-(4-fluorophenyl)acetyl]ureido}phenoxy)pyridin-2-yl]-1-methyl-1-(1-methylpiperidin-4-yl)urea]"
8,28,"CC(=O)N1CCC(N(C)C(=O)Nc2cc(Oc3ccc(NC(=S)NC(=O)Cc4ccc(F)cc4)cc3F)ccn2)CC1 [Example 301, 1-(1-Acetylpiperidin-4-yl)-3-[4-(2-fluoro-4-{3-[2-(4-fluorophenyl)acetyl]thioureido}phenoxy)pyridin-2-yl]-1-methylurea]"
9,54,"CN(C)CCN1CCN(C(=O)Nc2cc(Oc3ccc(NC(=S)NC(=O)Cc4ccccc4)cc3F)ccn2)CC1 [Example 309, 2-{[4-(2-Dimethylaminoethyl)piperazin-1-yl]carbonylamino}-4-(2-fluoro-4-{3-[2-(phenyl)acetyl]thioureido}phenoxy)pyridine]"

# Further lines, the compound ahead of its results:
row,Compound,IC50 [nM]
1,CN1CC(N2CCN(C(=O)Nc3cc(Oc4ccc(NC(=S)NC(=O)Cc5ccc(F)cc5)cc4F)ncn3)CC2)C1 [Example 196],57
2,"CN1CC[C@H](N(C)C(=O)Nc2cc(Oc3ccc(NC(=S)NC(=O)Cc4ccc(F)cc4)cc3F)ncn2)C1 [Example 201, 3-[6-(2-Fluoro-4-{3-[2-(4-fluorophenyl)acetyl]thioureido}phenoxy)pyrimidin-4-yl]-1-methyl-1-[(3S)-1-methylpyrrolidin-3-yl]urea]",50
3,"CN(C)C1CN(C(=O)Nc2cc(Oc3ccc(NC(=S)NC(=O)Cc4ccc(F)cc4)cc3F)ncn2)C1 [Example 208, 3-Dimethylaminoazetidine-1-carboxylic acid [6-(2-fluoro-4-{3-[2-(4-fluorophenyl)acetyl]thioureido}phenoxy)pyrimidin-4-yl]amide]",50
4,"CN(C)C[C@H]1CCN(C(=O)Nc2cc(Oc3ccc(NC(=S)NC(=O)Cc4ccc(F)cc4)cc3F)ncn2)C1 [Example 209, 4-{[(3R)-3-(Dimethylaminomethyl)pyrrolidin-1-yl]carbonylamino}-6-(2-fluoro-4-{3-[2-(4-fluorophenyl)acetyl]thioureido}phenoxy)pyrimidine]",65
5,"CN(C)C[C@@H]1CCN(C(=O)Nc2cc(Oc3ccc(NC(=S)NC(=O)Cc4ccc(F)cc4)c(F)c3)ccn2)C1 [Example 219, (3S)-3-Dimethylaminomethylpyrrolidine-1-carboxylic acid [4-(3-fluoro-4-{3-[2-(4-fluorophenyl)acetyl]thioureido}phenoxy)pyridin-2-yl]amide]",42
6,"CN(C)CCCN1CCC(N(C)C(=O)Nc2cc(Oc3ccc(NC(=S)NC(=O)Cc4ccc(F)cc4)cc3F)ncn2)CC1 [Example 221, 1-[1-(3-Dimethylaminopropyl)piperidin-4-yl]-3-[6-(2-fluoro-4-{3-[2-(4-fluorophenyl)acetyl]thioureido}phenoxy)pyrimidin-4-yl]-1-methylurea]",170
7,"CN(C)CCN1CCC(N(C)C(=O)Nc2cc(Oc3ccc(NC(=S)NC(=O)Cc4ccccc4)cc3F)ccn2)CC1 [Example 223, 1-[1-(2-Dimethylaminoethyl)piperidin-4-yl]-3-{4-[2-fluoro-4-(3-phenylacetylthioureido)phenoxy]pyridin-2-yl}-1-methylurea]",58
8,"CN(C)CCN1CCC(N(C)C(=O)Nc2cc(Oc3ccc(NC(=S)NC(=O)Cc4ccc(F)cc4)cc3F)ccn2)CC1 [Example 224, 1-[1-(2-Dimethylaminoethyl)piperidin-4-yl]-3-[4-(2-fluoro-4-{3-[2-(4-fluorophenyl)acetyl]thioureido}phenoxy)pyridin-2-yl]-1-methylurea]",88
9,"CN(C)CCCN1CCC(N(C)C(=O)Nc2cc(Oc3ccc(NC(=S)NC(=O)Cc4ccc(F)cc4)cc3F)ccn2)CC1 [Example 225, 1-[1-(3-Dimethylaminopropyl)piperidin-4-yl]-3-[4-(2-fluoro-4-{3-[2-(4-fluorophenyl)acetyl]thioureido}phenoxy)pyridin-2-yl]-1-methylurea]",79
10,"CN(C)[C@@H]1CCN(C(=O)Nc2cc(Oc3ccc(NC(=S)NC(=O)Cc4ccccc4)cc3F)ccn2)C1 [Example 245, 2-{[(3R)-3-Dimethylaminopyrrolidin-1-yl]carbonylamino}-4-{2-fluoro-4-[3-(2-phenylacetyl)thioureido]phenoxy}pyridine]",81
11,"CN(C)[C@H]1CCN(C(=O)Nc2cc(Oc3ccc(NC(=S)NC(=O)Cc4ccccc4)cc3F)ccn2)C1 [Example 246, 2-{[(3S)-3-Dimethylaminopyrrolidin-1-yl]carbonylamino}-4-{2-fluoro-4-[3-(2-phenylacetyl)thioureido]phenoxy}pyridine]",79
12,"CN(C)[C@H]1CCN(C(=O)Nc2cc(Oc3ccc(NC(=O)NC(=O)Cc4ccccc4)cc3F)ccn2)C1 [Example 250, 2-{[(3S)-3-Dimethylaminopyrrolidin-1-yl]carbonylamino}-4-{2-fluoro-4-[3-(2-phenylacetyl)ureido]phenoxy}pyridine]",68
13,"CN(C)[C@H]1CCN(C(=O)Nc2cc(Oc3ccc(NC(=S)NC(=O)Cc4ccc(F)cc4)cc3F)ncn2)C1 [Example 254, 4-{[(3S)-3-Dimethylaminopyrrolidin-1-yl]carbonylamino}-6-(2-fluoro-4-{3-[2-(4-fluorophenyl)acetyl]thioureido}phenoxy)pyrimidine]",83

# From patent US20070270421A1, “Novel pyridine Derivative and Pyrimidine Derivative (1)” (priority 2004, published 2007)
